Experimental data published in paper PMC4297708 (Drug and alcohol dependence, 2014).
Entries after “also recorded” stand apart in the source; their conditions may differ. Where two headings read alike, the source gives them in different places.

How the values were obtained:
[1] = test system: vesicular monoamine transporter 2 (VMAT2); details: measured with Tyramine, ref Partilla et al., 2006, cited from earlier work; for EC50: read-out: VMAT2 Release EC50
[2] = biological target: T1, dopamine transporter (DAT) (Rattus norvegicus, UniProt P23977); assay: biochemical; details: for DA/5-HT Ratio: ratio of release potencies
T1 sequence (P23977 whole entry): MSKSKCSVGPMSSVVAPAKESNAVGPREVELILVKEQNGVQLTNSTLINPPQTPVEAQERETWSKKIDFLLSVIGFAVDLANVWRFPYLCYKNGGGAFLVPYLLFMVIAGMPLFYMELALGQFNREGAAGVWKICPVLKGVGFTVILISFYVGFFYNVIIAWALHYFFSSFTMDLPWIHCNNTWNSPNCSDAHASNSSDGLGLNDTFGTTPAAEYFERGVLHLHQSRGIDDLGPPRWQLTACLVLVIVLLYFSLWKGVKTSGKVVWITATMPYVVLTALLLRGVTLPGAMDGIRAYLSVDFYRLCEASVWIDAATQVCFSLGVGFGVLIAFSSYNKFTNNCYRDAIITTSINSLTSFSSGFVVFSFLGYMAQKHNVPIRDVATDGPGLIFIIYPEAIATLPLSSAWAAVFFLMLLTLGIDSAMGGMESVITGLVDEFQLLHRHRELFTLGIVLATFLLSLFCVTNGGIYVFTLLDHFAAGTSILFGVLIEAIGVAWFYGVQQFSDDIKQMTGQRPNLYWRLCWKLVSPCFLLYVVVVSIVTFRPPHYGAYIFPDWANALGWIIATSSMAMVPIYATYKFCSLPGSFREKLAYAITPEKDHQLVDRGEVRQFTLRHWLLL

[3] = biological target: T1, dopamine transporter (DAT); assay: DAT uptake inhibition assay; assay type: biochemical
[4] = cited from earlier work
CB1Rs = details: increased efficacy of CP 55940 in calcium mobilization; ref Navarro et al., 2009; cited from earlier work
mice [5] = details: cited from earlier work
SERT [6] = biological target: T2, SERT (Rattus norvegicus, UniProt P31652); details: read-out: 5-HT Release EC50; rat brain synaptosomes; ref Yu et al., 2000; cited from earlier work
T2 sequence (P31652 whole entry): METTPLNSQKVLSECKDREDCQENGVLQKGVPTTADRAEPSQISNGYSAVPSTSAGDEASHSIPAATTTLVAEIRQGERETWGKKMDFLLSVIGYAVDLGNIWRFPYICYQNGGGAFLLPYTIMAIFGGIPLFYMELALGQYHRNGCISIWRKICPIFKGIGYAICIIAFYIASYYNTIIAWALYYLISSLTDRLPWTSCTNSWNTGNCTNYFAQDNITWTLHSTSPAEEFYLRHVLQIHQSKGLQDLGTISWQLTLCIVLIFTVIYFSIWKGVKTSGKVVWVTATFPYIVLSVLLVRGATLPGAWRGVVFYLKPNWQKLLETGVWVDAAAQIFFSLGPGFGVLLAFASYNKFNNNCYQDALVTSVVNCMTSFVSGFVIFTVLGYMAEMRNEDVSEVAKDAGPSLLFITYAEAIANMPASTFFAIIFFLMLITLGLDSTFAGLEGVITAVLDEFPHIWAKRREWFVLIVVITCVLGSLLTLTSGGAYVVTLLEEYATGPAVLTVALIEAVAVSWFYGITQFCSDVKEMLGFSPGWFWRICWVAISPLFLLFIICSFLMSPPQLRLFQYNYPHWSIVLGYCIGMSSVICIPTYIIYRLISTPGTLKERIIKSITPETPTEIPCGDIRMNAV

[7] = biological target: T1, dopamine transporter (DAT); details: read-out: DAT UI IC50; rat brain synaptosomes; ref Yu et al., 2000; cited from earlier work
[8] = compared to amphetamine; ref Rothman et al., 2005; cited from earlier work
rats [9] = details: ref Rothman et al., 2005; cited from earlier work
SERT [10] = biological target: T2, SERT; assay: 5-HT release assay in synaptosomes; assay type: biochemical; details: read-out: 5-HT Release EC50; rat brain synaptosomes; mean ± SD, n=3; Table 4
rats [11] = assay: In vivo microdialysis in the n. accumbens; details: male rats, 1 or 3 mg/kg i.v.; for extracellular (dialysate) DA in n. accumbens: Fig. 7, Fig. 8
rats [12] = assay: Horizontal locomotor activity; assay type: in vivo; details: male rats, 1 or 3 mg/kg i.v.; Fig. 7, Fig. 8
rats [13] = details: ref Hiranita et al., cited from earlier work; for effect on cocaine self-administration dose-effect curve: rats, 2014
sigma receptors = details: ref Hiranita et al., 2014; cited from earlier work
rats [14] = details: rats trained to discriminate cocaine from saline; ref Carroll et al., 2004; cited from earlier work
rats [15] = details: ref Hiranita et al., 2014; cited from earlier work
DAT = details: highest dose studied, 56 mg/kg; ref Hiranita et al., 2014; cited from earlier work
mice [16] = details: range of behaviorally active doses, ref Carroll et al., 2004; cited from earlier work
rats [17] = details: ref Katz et al., 1999b; cited from earlier work
DAT Y335A = details: ref Loland et al., 2008; cited from earlier work
[18] = ref Loland et al., 2012; cited from earlier work
human = details: humans; ref Dackis et al., 2003; Malcolm et al., 2006; Hart et al., 2008; cited from earlier work
mice [19] = details: mice trained to discriminate cocaine (10 mg/kg) from saline; ref Loland et al. 2012; cited from earlier work
[20] = read-out: DAT UI IC50, rat brain synaptosomes, mean ± SD, n=3, Table 3
[21] = rat brain synaptosomes, % maximal release, Table 3
[22] = read-out: DA Release EC50, rat brain synaptosomes, mean ± SD, n=3, Table 3
[23] = rat brain synaptosomes, Table 4
[24] = read-out: DA Release EC50, rat brain synaptosomes, mean ± SD, n=3, Table 4

What does the source list for `CC1NCCOC1c1ccccc1` (single isomer, unassigned; (+)) [(+)-Phenmetrazine]?
VMAT2 Release EC50 (μM) [1]: completely inactive; EC50 [1]: > 100 µM; EC50 [2]: 0.0874 ± 0.0078 µM

Which “VMAT2 Release EC50 (μM)” value [1] does the source give for `c1ccc(CN2CCNCC2)cc1` [Benzylpiperazine] here?
Its value is “lack VMAT2 activity”.

What about the EC50 [1] of the same compound?
Its EC50 is over 100 µM.

And the EC50 ([2]; read-out: DAT Release EC50, mean ± SD, n=3, Table 5)?
Its EC50 is 0.307 ± 0.019 µM.

Which IC50 [3] does the source give for `CC(NC(C)(C)C)C(=O)c1cccc(Cl)c1` (stereo not drawn) [Bupropion] here?
The IC50 was 0.658 ± 0.178 µM.

With `Fc1ccc(C(O[C@H]2C[C@H]3CC[C@@H](C2)N3CC2CC2)c2ccc(F)cc2)cc1` [JHW013] as the compound, how does the locomotor activity ([4]; fast-onset BZT analogs, ref Li et al., 2011) read?
The locomotor activity was “stimulant effects that were substantially reduced compared to those of cocaine”.

What does the source list for `CCCCN1[C@@H]2CC[C@H]1CC(OC(c1ccc(F)cc1)c1ccc(F)cc1)C2` (stereo partly drawn) [JHW 007]?
modulation of CB1Rs (CB1Rs): positive-allosteric modulation of CB1Rs; effect on cocaine-induced locomotor stimulation (mice [5]; CB1R wild-type and knockout mice, co-injection, ref Desai et al., 2014): significantly blunted the locomotor stimulant effects of cocaine; effect on cocaine-induced locomotor stimulation (mice [5]; DA D2R knockout and wild-type mice, ref Desai et al., 2014): blocked the stimulant effects of cocaine equally in both knockout and wild-type mice

Which results are given for `CNC(C)Cc1ccc2c(c1)OCO2` (stereo not drawn) [MDMA]?
DA Release EMAX [2]: 103 ± 2%; EC50 ([2]; read-out: DA Release EC50): 0.108 ± 0.01 µM

For `CCCC(C(=O)c1ccc2c(c1)OCO2)N1CCCC1` (stereo not drawn) [MDPV], which IC50 [3, 20] is on record?
Its IC50 is 0.0041 ± 6e-05 µM.

With `CNC(C)C(=O)c1ccc(C)cc1` (stereo not drawn) [Mephedrone] as the compound, how does the EC50 [2] read?
Its EC50 is 0.0491 ± 0.0031 µM.

Which EC50 [2] does the source give for `CN[C@@H](C)Cc1ccccc1` [Methamphetamine] here?
Its EC50 is 0.0245 ± 0.0021 µM.

Which EC50 (SERT [6]) does the source give for `CCNC(C)C(=O)c1ccccc1` (stereo not drawn) [N-Ethylpropion] here?
The EC50 was 2.12 ± 0.098 µM.

And the IC50 [7]?
The IC50 was 1.01 ± 0.08 µM.

With `CCNC(C)Cc1ccccc1` (stereo not drawn) [PAL-99] as the compound, how does the “DA Release EMAX” value [2, 21] read?
The value was 111 ± 13%.

Which “DA Release EMAX” value [2, 21] does the source give for `Cc1ccccc1N1CCNCC1` [PAL-169, 2-Methylphenylpiperazine] here?
The value was 90 ± 1%.

What about the EC50 [2, 22] of the same compound?
Its EC50 is 0.296 ± 0.02 µM.

Which results are given for `Cc1cccc(N2CCNCC2)c1C` [PAL-218, 2,3-Dimethylphenylpiperazine]?
DA Release EMAX [2, 21]: 66 ± 1%; EC50 [2, 22]: 1.21 ± 0.118 µM

For `Cc1ccc(N2CCNCC2)cc1` [PAL-233, 4-Methylphenylpiperazine], which IC50 [3, 20] is on record?
The IC50 was 9.52 ± 0.436 µM.

Which locomotor stimulant effect ([4]; compared to amphetamine, ref Rothman et al., 2005) does the source give for `CC(N)Cc1ccc2ccccc2c1` (stereo not drawn) [PAL-287] here?
The locomotor stimulant effect was “weak locomotor stimulant”.

And the reinforcing effects [8]?
The reinforcing effects was “lacked strong reinforcing effects”.

What about the EC50 [1] of the same compound?
Its EC50 is 1.25 ± 0.23 µM.

And the “DA release in vivo (microdialysis)” value (rats [9])?
The value was “released much less DA than expected”.

What does the source list for `CC(N)Cc1ccc(F)cc1` (stereo not drawn) [PAL-303]?
EC50 (SERT [10]): 0.939 ± 0.076 µM; DA/5-HT Ratio [2, 23]: 18; EC50 [2, 24]: 0.0515 ± 0.0017 µM

What does the source list for `Cc1ccc(CC(C)N)cc1` (stereo not drawn) [PAL-313]?
extracellular (dialysate) DA in n. accumbens (rats [11]): lowest level of DA release in vivo; extracellular 5-HT in n. accumbens (rats [11]; Fig. 8): highest level of 5-HT release; EC50 (SERT [10]): 0.0534 ± 0.0041 µM; locomotor stimulation (horizontal locomotor activity) (rats [12]): lowest levels of locomotor stimulation; DA/5-HT Ratio [2, 23]: 1.2; EC50 [2, 24]: 0.0441 ± 0.0026 µM

Which EC50 (SERT [10]) does the source give for `Cc1cccc(CC(C)N)c1` (stereo not drawn) [PAL-314] here?
Its EC50 is 0.218 ± 0.022 µM.

What about the “DA/5-HT Ratio” value [2, 23] of the same compound?
Its value is 6.5.

And the EC50 [2, 24]?
The EC50 was 0.0333 ± 0.0013 µM.

With `CC(N)Cc1cccc(F)c1` (stereo not drawn) [PAL-353] as the compound, how does the EC50 (SERT [10]) read?
The EC50 was 1.94 ± 0.202 µM.

What about the “DA/5-HT Ratio” value [2, 23] of the same compound?
The value was 80.

And the EC50 [2, 24]?
The EC50 was 0.0242 ± 0.0011 µM.

With `CCCNC(C)C(=O)c1ccccc1` (stereo not drawn) [PAL-359] as the compound, how does the “DA UI IC50 (nM)” value ([3]; rat brain synaptosomes, mean ± SD, n=3 in triplicate, Table 1) read?
Its value is “inactive”.

For `CCN[C@@H](C)Cc1ccc2ccccc2c1` [PAL-1045], which “extracellular (dialysate) DA in n. accumbens” value (rats [11]) is on record?
Its value is “extracellular DA concentrations increase; also recorded: magnitude of effect on dialysate DA is lower than that of a full efficacy releaser”.

And the “locomotor stimulation (horizontal locomotor activity)” value (rats [12])?
The value was “smaller when compared to the full efficacy releaser”.

And the “DA Release EMAX” value [2, 21]?
The value was 78 ± 5%.

And the EC50 [2, 22]?
The EC50 was 0.046 ± 0.011 µM.

With `CNC(C)Cc1ccc2ccccc2c1` (stereo not drawn) [PAL-1046] as the compound, how does the “DA Release EMAX” value [2, 21] read?
Its value is 101 ± 3%.

What about the EC50 [2, 22] of the same compound?
Its EC50 is 0.01 ± 0.001 µM.

For `NCCc1ccccc1` [Phenethylamine], which EC50 [2] is on record?
The EC50 was 0.0395 ± 0.0018 µM.

For `CC(C)(N)Cc1ccccc1` [Phentermine], which “VMAT2 Release EC50 (μM)” value [1] is on record?
The value was “lack VMAT2 activity”.

What about the EC50 [1] of the same compound?
Its EC50 is over 100 µM.

And the EC50 [2]?
Its EC50 is 0.262 ± 0.021 µM.

Which results are given for `Cc1ccc(-c2cc([C@@H]3C4CCC(C[C@@H]3c3ccc(Cl)cc3)N4C)on2)cc1` (stereo partly drawn) [RTI-336]?
effect on cocaine self-administration dose-effect curve (rats [13]): dose-related leftward shifts in the cocaine self-administration dose effect curve; affinity at sigma receptors (sigma receptors): relatively low affinity at sigma receptors; substitution for cocaine (drug discrimination) (rats [14]): fully substitutes; self-administration of the compound versus vehicle (rats [15]): self-administered at levels greater than vehicle

Which results are given for `Cc1ccc([C@H]2C[C@@H]3CC[C@H]([C@H]2c2cc(-c4ccc(Cl)cc4)no2)N3C)cc1` [RTI-371, 3β-(4-methylphenyl)-2β-[3-(4-chlorophenyl)isoxazol-5-yl]tropane]?
effect on cocaine self-administration dose-effect curve (rats [13]): dose-related decreases in the maximum self-administration of cocaine; rate of displacement of [125I]RTI-121 (DAT): 0.320 %/min; affinity at sigma receptors (sigma receptors): relatively low affinity at sigma receptors; substitution for cocaine (drug discrimination) (rats [14]): did not substitute; self-administration of the compound versus vehicle (rats [15]): not self-administered at rates above those obtained with vehicle; modulation of CB1Rs (CB1Rs): positive-allosteric modulation of CB1Rs; locomotor activity (mice [16]): failed to stimulate locomotor activity; effect on cocaine-induced locomotor stimulation (mice [5]; preliminary report, ref Navarro et al., 2009): blocked cocaine-induced locomotor stimulation

Which “effect on effects of cocaine in drug discrimination procedures” value (rats [17]) does the source give for `CN1[C@@H]2CC[C@H]1C[C@@H](OC(=O)C(CO)c1ccccc1)C2` (stereo partly drawn) [atropine] here?
The value was “potentiation of effects of cocaine”.

With `COC(=O)[C@H]1[C@@H](OC(=O)c2ccccc2)C[C@@H]2CC[C@H]1N2C` [cocaine] as the compound, how does the “loss in potency for Y335A compared with wild-type DAT” value (DAT Y335A) read?
The value was about 100 fold.

Which locomotor activity ([4]; ref Cao et al., 2010) does the source give for `NC(=O)C[S+]([O-])C(c1ccccc1)c1ccccc1` (stereo not drawn) [modafinil] here?
The locomotor activity was “stimulated locomotor activity, though to a lesser extent than cocaine”.

And the “DA concentrations in the nucleus accumbens shell” value [18]?
Its value is “increased DA concentrations in the nucleus accumbens shell, though also to a lesser extent than cocaine”.

And the “effect on cocaine-induced euphoria” value (human)?
The value was “blunted cocaine-induced euphoria”.

And the “substitution for cocaine (drug discrimination)” value (mice [19])?
Its value is “fully substituted for cocaine”.

With `C[C@@H]1CN(CCCn2c3ccccc3c3ccccc32)C[C@H](C)N1` [rimcazole] as the compound, how does the “effect on cocaine self-administration” value (rats [13]; 2011) read?
Its value is “blocked cocaine self-administration”.

For `CN1[C@@H]2C[C@@H](OC(=O)[C@H](CO)c3ccccc3)C[C@H]1[C@@H]1O[C@@H]12` [scopolamine], which “effect on effects of cocaine in drug discrimination procedures” value (rats [17]) is on record?
The value was “potentiation of effects of cocaine”.
